ChEMBL document CHEMBL1127396, “Adenosine deaminase inhibitors. Synthesis and biological evaluation of putative metabolites of (+)-erythro-9-(2S-hydroxy-3R-nonyl)adenine” (J Med Chem, 1994)

What follows are compounds tested against T1, Adenosine deaminase (Bos taurus, UniProt P56658) (assay: Tested for binding affinity against calf intestinal Adenosine Deaminase (ADA)).
T1 sequence (P56658 whole entry): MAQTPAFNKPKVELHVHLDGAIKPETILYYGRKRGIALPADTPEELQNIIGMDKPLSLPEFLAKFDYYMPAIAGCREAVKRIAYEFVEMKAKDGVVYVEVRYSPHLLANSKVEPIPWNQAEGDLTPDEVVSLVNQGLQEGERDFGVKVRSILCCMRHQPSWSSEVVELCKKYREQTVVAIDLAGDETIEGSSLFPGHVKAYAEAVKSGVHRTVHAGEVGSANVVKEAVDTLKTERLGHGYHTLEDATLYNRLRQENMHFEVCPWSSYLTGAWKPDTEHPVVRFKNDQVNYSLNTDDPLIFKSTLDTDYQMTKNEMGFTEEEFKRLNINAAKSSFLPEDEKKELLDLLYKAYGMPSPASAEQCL

Structure (SMILES)	Ki
CCCCCC[C@H]([C@H](C)O)n1c(O)nc2c(N)ncnc21	6.4 nM
CCCCCC[C@H]([C@H](C)O)[N+]1([O-])C(=O)Nc2c(N)ncnc21 (some centres undefined)	15.8 nM
CCCCCC[C@H]([C@H](C)O)[N+]1([O-])C=Nc2c(N)ncnc21 (some centres undefined)	3.8 nM
CCCCCC[C@H]([C@H](C)O)n1cnc2c(N)ncnc21 [(+)-EHNA]	0.82 nM
